Data published in patent US12440496B2, “Natriuretic peptide receptor a agonists useful for the treatment of cardiometabolic diseases, kidney disease and diabetes” (Merck Sharp & Dohme LLC, priority 2019, dated 2025).

Molecular target: T1, hNPRA (Homo sapiens, UniProt P16066)
T1 construct: expressed in transfected cells
T1 sequence (P16066 33-1061): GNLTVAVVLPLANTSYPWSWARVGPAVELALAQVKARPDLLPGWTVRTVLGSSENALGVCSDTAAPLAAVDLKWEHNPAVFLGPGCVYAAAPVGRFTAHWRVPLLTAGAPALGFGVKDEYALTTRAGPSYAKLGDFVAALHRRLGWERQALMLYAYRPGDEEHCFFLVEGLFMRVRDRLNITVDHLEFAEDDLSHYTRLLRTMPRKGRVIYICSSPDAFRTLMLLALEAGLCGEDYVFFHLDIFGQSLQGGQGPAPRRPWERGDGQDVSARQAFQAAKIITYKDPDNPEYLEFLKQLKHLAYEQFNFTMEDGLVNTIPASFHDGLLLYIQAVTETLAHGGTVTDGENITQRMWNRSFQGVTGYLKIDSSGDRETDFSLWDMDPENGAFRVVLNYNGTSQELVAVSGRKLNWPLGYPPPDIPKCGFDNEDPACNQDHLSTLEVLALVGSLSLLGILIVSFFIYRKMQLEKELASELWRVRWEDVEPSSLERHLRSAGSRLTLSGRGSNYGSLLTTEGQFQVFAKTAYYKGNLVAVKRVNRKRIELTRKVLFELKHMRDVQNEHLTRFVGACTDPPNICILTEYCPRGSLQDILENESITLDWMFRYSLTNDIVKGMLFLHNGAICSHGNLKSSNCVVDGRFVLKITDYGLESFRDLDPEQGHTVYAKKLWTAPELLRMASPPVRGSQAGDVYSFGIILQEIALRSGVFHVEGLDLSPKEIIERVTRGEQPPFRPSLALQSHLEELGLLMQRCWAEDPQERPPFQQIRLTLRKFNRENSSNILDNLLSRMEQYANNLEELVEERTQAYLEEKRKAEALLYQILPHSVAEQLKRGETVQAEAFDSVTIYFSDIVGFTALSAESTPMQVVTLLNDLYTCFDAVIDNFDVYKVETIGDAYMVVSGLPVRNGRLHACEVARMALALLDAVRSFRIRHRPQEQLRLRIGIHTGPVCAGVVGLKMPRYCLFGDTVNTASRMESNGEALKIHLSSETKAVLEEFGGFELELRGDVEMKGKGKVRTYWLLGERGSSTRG
Assay: NPRA Functional Cell Assay (cGMP HTRF, NPRA HEK JumpIn stable cells)
Type: cell-based
Conditions: cGMP production, 1 hour at 37° C., 10-point dose response
Text: NPRA Functional Cell Assay
Assay Buffer components HEPES and Opti-MEM® I Reduced-Serum with Glutamine (no phenol red) were from Gibco/Invitrogen (Thermo Fisher Scientific, Waltham, MA USA). 3-Isobutyl-1-methylxanthine (IBMX) and 4-(3-Butoxy-4-methoxybenzyl) imidazolidin-2-one (RO20) were obtained from Sigma-Aldrich (St. Louis, MO, USA). DPBS (Dulbecco's phosphate-buffered saline) without Ca2+ and Mg2+ was purchased from GE Healthcare Bio-Sciences (Pittsburgh, PA, USA). 384 well white Optiplates were from Perkin Elmer (Atlantic Highlands, NJ, USA). Human ANP (Atrial Natriuretic Peptide) (1-28) was purchased from Sigma-Aldrich (Catalog #A1663) and rat ANP (1-28) from Bachem (Torrance, CA, USA) (Catalog #H2100). Human-BNP (Human-Brain Natriuretic Peptide) (1-32 AA) was purchased from American Peptide Company (Sunnyvale, CA, USA) (product No. 14-1-90). cGMP kits were purchased from Cisbio. The assay ready frozen (ARF) Human/rat/dog NPRA HEK JumpIn Stable frozen cells (low passage number 5-11) were prepared in-house.
Test compounds were titrated in DMSO in a 10-point dose response in a separate step followed by a 100-fold dilution into the reaction. Positive response for each assay was determined using 10 nM rat-ANP peptide (rat cells) or 50 nM h-ANP peptide (human and dog cells).
Cells were thawed, washed with DPBS and resuspended in assay buffer (Opti-MEM+Glutamine, phenol red free media, 10 mM HEPES, 100 uM IBMX and 100 uM RO20) that was warmed to 37° C. Cells were then transferred to microplates via a Microplate Combi dispenser at a density of 1500, 400 and 1200 cells/well for human, rat and dog cells respectively, followed by acoustic transfer (Echo) of compound.
(§1) Compounds and cells were incubated at 37° C. with 5% CO2 for 1 hour, after which the cells were lysed and cGMP was captured using a CisBio cGMP HTRF assay kit. The TRF signal was measured with an Envision plate reader (emission set to 615 and 665 nm) after 1 hour incubation at ambient temperature. The TRF signal was converted to [cGMP] through the use of a cGMP calibration curve on each microplate. EC50's were generated from the resulting dose response curves by use of a 4 parameter logistic algorithm.
Assay Buffer components HEPES and Opti-MEM® I Reduced-Serum with Glutamine (no phenol red) were from Gibco/Invitrogen. 3-Isobutyl-1-methylxanthine (IBMX) and 4-(3-Butoxy-4-methoxybenzyl) imidazolidin-2-one (RO20) were obtained from Sigma. DPBS (Dulbecco's phosphate-buffered saline) without Ca2+ and Mg2+ was purchased from GE Healthcare Bio-Sciences (Pittsburgh, PA, USA). 384 well white Optiplates were from Perkin Elmer (Atlantic Highlands, NJ, USA). Human ANP (1-28) was purchased from Sigma (A1663) and rat ANP (1-28) from Bachem (H2100). Human-BNP (1-32 AA) was purchased from American Peptide Company (Sunnyvale, CA, USA) (product No. 14-1-90). cGMP kits were purchased from Cisbio (Bedford, MA, USA). The assay ready frozen (ARF) Human/rat/dog NPRA HEK JumpIn Stable frozen cells (low passage number 5-11) were prepared in-house.
as §1, with “Envision®” for “Envision”, “reader (Perkin Elmer)” for “reader”
hNPRA EC50 (nM) were determined for the compounds of Example 1 through Example 273 and are reported in the Experimental section of this application.

Structure (SMILES) | EC50 [nM]
COC1CCN(CC[C@@H](NC(=O)c2nc3cc4c(nc3s2)CC[C@H](C(C)(C)C)C4)c2cccc(C(=O)NC3CN(C)C3)c2)CC1 (racemic) [Example 109, rac-(7S)-7-tert-butyl-N-[rac-(1R)-3-(4-methoxy-1-piperidyl)-1-[3-[(1-methylazetidin-1-ium-3-yl)carbamoyl]phenyl]propyl]-5,6,7,8-tetrahydrothiazolo[5,4-b] quinoline-2-carboxamide; 2,2,2-trifluoroacetate] | 629
CC(C)(C)[C@H]1CCc2nc3sc(C(=O)N[C@H](CCNC4CNC(=O)C4)c4ccc(-c5ccc(=O)[nH]c5)cc4)cc3cc2C1 (mixture of isomers) [Example 57, (5-oxopyrrolidin-3-yl)-[rac-(3R)-3-[4-(6-oxo-1H-pyridin-3-yl)phenyl]-3-[[rac-(6S)-6-tert-butyl-5,6,7,8-tetrahydrothieno[2,3-b]quinoline-2-carbonyl]amino]propyl] ammonium;formate] | 889
CN(C)CC[C@@H](NC(=O)c1nc2cc3c(nc2s1)CC[C@H](C(C)(C)C)C3)c1cccc(C(=O)NC2CN(C)C2)c1 (racemic) [Example 86, rac-(7S)-7-tert-butyl-N-[rac-(1R)-3-(dimethyl-amino)-1-[3-[(1-methylazetidin-3-yl)carbamoyl]phenyl]propyl]-5,6,7,8-tetrahydrothiazolo[5,4-b] quinoline-2-carboxamide] | 183
CC(C)(C)[C@H]1CCc2nc3sc(C(=O)N[C@H](CCN4CCC(O)CC4)c4ccc(-c5c[nH]c(=O)c(F)c5)cc4)nc3cc2C1 [Example 82, (7S)-7-tert-butyl-N-[(1R)-1-[4-(5-fluoro-6-hydroxy-3-pyridyl)phenyl]-3-(4-hydroxy-1-piperidyl)propyl]-5,6,7,8-tetrahydrothiazolo[5,4-b]quinoline-2-carboxamide] | 196
CC(C)(C)[C@H]1CCc2nc3sc(C(=O)N[C@H](CCN4CCCCC4)c4ccc(-c5cn[nH]c5)cc4)cc3cc2C1 (racemic) [Example 5, rac-(6S)-6-tert-butyl-N-[rac-(1R)-3-(1-piperidy])-1-[4-(1H-pyrazol-4-yl)phenyl]propyl]-5,6,7,8-tetrahydrothieno[2,3-b]quinoline-2-carboxamide] | 777
O=C(N[C@H](CCN1CCC(O)CC1)c1ccc(-c2cn[nH]c2)cc1)c1nc2cc3c(nc2s1)CC[C@H](C1(C(F)(F)F)CC1)C3 [Example 268, (S)-N-((R)-1-(4-(1H-pyrazol-4-yl)phenyl)-3-(4-hydroxypiperidin-1-yl)propyl)-7-(1-(trifluoromethyl)cyclopropyl)-5,6,7,8-tetrahydrothiazolo[5,4-b]quinoline-2-carboxamide] | 2030
CC(C)(C)[C@H]1CCc2nc3sc(C(=O)N[C@H](CCN4CCCCC4)c4ccc(-c5cnc(O)c(F)c5)cc4)cc3cc2C1 [Example 238, (S)-6-(tert-butyl)-N-((R)-1-(4-(5-fluoro-6-hydroxypyridin-3-yl)phenyl)-3-(piperidin-1-yl)propyl)-5,6,7,8-tetrahydrothieno[2,3-b]quinoline-2-carboxamide] | 235
CC(C)(C)[C@H]1CCc2nc3sc(C(=O)N[C@H](CCN4CCCCC4CO)c4ccc(-c5ccc(=O)[nH]c5)cc4)cc3cc2C1 (mixture of isomers) [Example 30, rac-(6S)-6-tert-butyl-N-[rac-(1R)-3-[2-(hydroxymethyl)piperidin-1-ium-1-yl]-1-[4-(6-oxo-1H-pyridin-3-yl)phenyl]propyl]-5,6,7,8-tetrahydrothieno[2,3-b]quinoline-2-carboxamide;formate] | 455
CC1(C)CN(CC[C@@H](NC(=O)c2nc3cc4c(nc3s2)CC[C@H](C(C)(C)C)C4)c2ccc(-c3ccc(=O)[nH]c3)cc2)C1 (racemic) [Example 77, rac-(7S)-7-tert-butyl-N-[rac-(1R)-3-(3,3-dimethylazetidin-1-yl)-1-[4-(6-oxo-1H-pyridin-3-yl)phenyl]propyl]-5,6,7,8-tetrahydrothiazolo[5,4-b]quinoline-2-carboxamide] | 681

The remaining compounds from weak to strong by EC50, led by results:

EC50 [nM] | Structure (SMILES)
6320 | CC(C)(C)[C@H]1CCc2nc3sc(C(=O)N[C@H](CCN4CCC(O)C4)c4ccccc4)cc3cc2C1 (stereo partly drawn) [Example 261, (6S)-6-tert-butyl-N-[(1R)-3-(3-hydroxypyrrolidin-1-yl)-1-phenylpropyl]-5,6,7,8-tetrahydrothieno[2,3-b]quinoline-2-carboxamide]
6320 | CC(C)(C)[C@H]1CCc2nc3sc(C(=O)N[C@H](CCN4CCC[C@@H]4CO)c4ccccc4)cc3cc2C1 [Example 262, (6S)-6-tert-butyl-N-{(1R)-3-[(2R)-2-(hydroxymethyl)pyrrolidin-1-yl]-1-phenylpropyl}-5,6,7,8-tetrahydrothieno[2,3-b]quinoline-2-carboxamide]
1010 | CN(C)S(=O)(=O)Nc1ccc([C@@H](CCN2CC[C@H]2CO)NC(=O)c2nc3cc4c(nc3s2)CC[C@H](C(C)(C)C)C4)cn1 (racemic) [Example 213, rac-(7S)-7-tert-butyl-N-[rac-(1R)-1-[6-(dimethylsulfamoylamino)-3-pyridyl]-3-[rac-(2S)-2-(hydroxymethyl)azetidin-1-ium-1-yl]propyl]-5,6,7,8-tetrahydrothiazolo[5,4-b]quinoline-2-carboxamide; 2,2,2-trifluoroacetate]
632 | CC(C)(C)[C@H]1CCc2nc3sc(C(=O)N[C@H](CCN4CCC(O)CC4)c4ccccc4)cc3cc2C1 [Example 250, (6S)-6-tert-butyl-N-[(1R)-3-(4-hydroxypiperidin-1-yl)-1-phenylpropyl]-5,6,7,8-tetrahydrothieno[2,3-b]quinoline-2-carboxamide]
553 | CC1(O)CN(C(=O)c2cccc([C@@H](CCN3CCC(O)CC3)NC(=O)c3nc4cc5c(nc4s3)CC[C@H](C(C)(C)C)C5)c2)C1 (racemic) [Example 145, rac-(7S)-7-tert-butyl-N-[rac-(1R)-1-[3-(3-hydroxy-3-methyl-azetidine-1-carbonyl)phenyl]-3-(4-hydroxy-1-piperidyl)propyl]-5,6,7,8-tetrahydrothiazolo[5,4-b]quinoline-2-carboxamide]
